Bridge positions count the residues as written; N and C are the ends. Square brackets hold non-standard residues; d marks the D form. Peptide text beside a SMILES is read from it. Hyp = O=C(O)[C@@H]1C[C@@H](O)CN1; Cit = NC(=O)NCCC[C@H](N)C(=O)O
What was measured:
hAM1 receptor = hAM1 receptor (Homo sapiens, UniProt O60895+Q16602); experiment: cAMP assay for in vitro receptor activation, hAM1-R; type: cell-based; conditions: cAMP assay, hAM1 receptor; read-out: hAM1R EC50
Summary of the method: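 cAMP accumulation was measured in a monoclonal cell line stably overexpressing the hAM1 receptor. Frozen aliquots were thawed and plated at 8000 cells/well in DPBS containing 0.05% casein and 0.5 mM IBMX.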

[1] = Physical stability of peptide analogues (Thioflavin T fibrillation); type: physicochemical; conditions: maximum ThT signal normalized between hAMY maximum and buffer background; 40° C., shaking, four days; pH 7 per table title
Summary of the method: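 Maximum ThT emission at 480 nm, after LOESS smoothing, is given as percent of the span from buffer background to hAMY. Conditions: 50 mM buffer at pH 4 or 7, 4 μM dye, 40 °C, repeated shaking, readings every 10 min for four days.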

Sequence of hAM1 receptor (Q16602 23-461): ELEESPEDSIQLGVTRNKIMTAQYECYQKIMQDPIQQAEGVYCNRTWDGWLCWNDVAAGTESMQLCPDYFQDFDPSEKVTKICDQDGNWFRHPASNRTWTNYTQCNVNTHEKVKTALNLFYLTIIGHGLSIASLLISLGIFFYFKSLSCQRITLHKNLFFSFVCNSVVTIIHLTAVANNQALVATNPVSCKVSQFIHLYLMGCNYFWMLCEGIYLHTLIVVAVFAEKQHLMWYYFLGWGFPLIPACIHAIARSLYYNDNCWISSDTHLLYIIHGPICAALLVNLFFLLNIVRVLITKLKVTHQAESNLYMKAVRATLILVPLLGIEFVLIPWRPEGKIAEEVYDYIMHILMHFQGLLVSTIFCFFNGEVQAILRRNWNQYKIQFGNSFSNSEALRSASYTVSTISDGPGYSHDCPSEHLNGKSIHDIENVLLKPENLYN
Sequence of hAM1 receptor (O60895 43-175 partner): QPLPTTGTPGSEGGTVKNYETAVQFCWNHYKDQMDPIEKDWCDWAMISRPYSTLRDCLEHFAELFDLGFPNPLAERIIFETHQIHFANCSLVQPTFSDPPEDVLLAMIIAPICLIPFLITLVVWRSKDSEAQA

Row | Compound | EC50 (hAM1 receptor) [µM] | Max ThT signal (%) [1] [%]
1 | CC[C@H](C)[C@H](NC(=O)[C@H](CCC(N)=O)NC(=O)[C@H](Cc1c[nH]cn1)NC(=O)[C@H](C)NC(=O)[C@H](CC(C)C)NC(=O)[C@H](CCCNC(=N)N)NC(=O)[C@H](CCC(N)=O)NC(=O)[C@@H](NC(=O)[C@@H](NC(=O)[C@@H]1CSSC[C@H](NC(=O)CN)C(=O)N[C@@H](CCCNC(=N)N)C(=O)N[C@@H]([C@@H](C)O)C(=O)NCC(=O)N[C@@H]([C@@H](C)O)C(=O)N1)[C@@H](C)O)C(C)C)C(=O)N[C@@H](Cc1ccc(O)cc1)C(=O)N[C@@H](CCC(N)=O)C(=O)N[C@@H](Cc1ccccc1)C(=O)N[C@H](C(=O)N[C@@H](CC(N)=O)C(=O)N[C@@H](CCCCN)C(=O)N[C@@H](CC(=O)O)C(=O)N[C@@H](CCCCN)C(=O)N[C@@H](CC(=O)O)C(=O)N[C@@H](CC(N)=O)C(=O)N[C@H](C(=O)N[C@@H](C)C(=O)N1CCC[C@H]1C(=O)N[C@@H](CCCNC(=N)N)C(=O)N[C@@H](CO)C(=O)N[C@@H](CCCCN)C(=O)N[C@H](C(=O)N[C@@H](CO)C(=O)N1CCC[C@H]1C(=O)N[C@@H](CCC(N)=O)C(=O)N[C@H](C(=O)N[C@@H](CCCNC(=N)N)C(N)=O)[C@@H](C)O)[C@@H](C)CC)C(C)C)[C@@H](C)O [compound 242] (H-GCRTGTCTVQRLAHQIYQFTNKDKDNVAPRSKISPQTR-NH2; disulfide 2-7; N-terminus assumed) | > 5 | 0.800
2 | CC[C@H](C)[C@H](NC(=O)[C@H](CCC(N)=O)NC(=O)[C@H](Cc1c[nH]cn1)NC(=O)[C@H](C)NC(=O)[C@H](CC(C)C)NC(=O)[C@H](CCCNC(=N)N)NC(=O)[C@H](CCC(N)=O)NC(=O)[C@@H](NC(=O)[C@@H](NC(=O)[C@@H]1CSSC[C@H](NC(=O)CN)C(=O)N[C@@H](CCCNC(=N)N)C(=O)N[C@@H]([C@@H](C)O)C(=O)NCC(=O)N[C@@H]([C@@H](C)O)C(=O)N1)[C@@H](C)O)C(C)C)C(=O)N[C@@H](Cc1ccc(O)cc1)C(=O)N[C@@H](CCC(N)=O)C(=O)N[C@@H](Cc1ccccc1)C(=O)N[C@H](C(=O)N[C@@H](CC(=O)O)C(=O)N[C@@H](CCCCN)C(=O)N[C@@H](Cc1ccccc1)C(=O)N[C@@H](CCCCN)C(=O)N[C@@H](CC(=O)O)C(=O)N[C@@H](CC(N)=O)C(=O)N[C@H](C(=O)N[C@@H](C)C(=O)N1CCC[C@H]1C(=O)N[C@@H](CCCNC(=N)N)C(=O)N[C@@H](CO)C(=O)N[C@@H](CCCCN)C(=O)N[C@H](C(=O)N[C@@H](CO)C(=O)N1CCC[C@H]1C(=O)N[C@@H](CCC(N)=O)C(=O)N[C@@H](C)C(=O)N1C[C@H](O)C[C@H]1C(N)=O)[C@@H](C)CC)C(C)C)[C@@H](C)O [compound 218] (H-GCRTGTCTVQRLAHQIYQFTDKFKDNVAPRSKISPQA[Hyp]-NH2; disulfide 2-7; N-terminus assumed) | > 5 | 4.500
3 | CC[C@H](C)[C@H](NC(=O)[C@H](CCC(N)=O)NC(=O)[C@H](Cc1c[nH]cn1)NC(=O)[C@H](C)NC(=O)[C@H](CC(C)C)NC(=O)[C@H](CCCNC(N)=O)NC(=O)[C@H](CCC(N)=O)NC(=O)[C@@H](NC(=O)[C@@H](NC(=O)[C@@H]1CSSC[C@H](NC(=O)CN)C(=O)N[C@@H](CCCNC(=N)N)C(=O)N[C@@H](Cc2ccccc2)C(=O)NCC(=O)N[C@@H]([C@@H](C)O)C(=O)N1)[C@@H](C)O)C(C)C)C(=O)N[C@@H](Cc1ccc(O)cc1)C(=O)N[C@@H](CCC(N)=O)C(=O)N[C@@H](Cc1ccccc1)C(=O)N[C@H](C(=O)N[C@@H](CC(=O)O)C(=O)N[C@@H](CCCCN)C(=O)N[C@@H](CC(=O)O)C(=O)N[C@@H](CCCCN)C(=O)N[C@@H](CC(=O)O)C(=O)N[C@@H](CC(N)=O)C(=O)N[C@H](C(=O)N[C@@H](C)C(=O)N1CCC[C@H]1C(=O)N[C@@H](CCCNC(=N)N)C(=O)N[C@H](C(=O)N[C@@H](CCCCN)C(=O)N[C@H](C(=O)N[C@@H](CO)C(=O)N1CCC[C@H]1C(=O)N[C@@H](CCC(N)=O)C(=O)NCC(=O)N1C[C@H](O)C[C@H]1C(N)=O)C(C)C)[C@@H](C)O)C(C)C)[C@@H](C)O [compound 287] (H-GCRFGTCTVQ[Cit]LAHQIYQFTDKDKDNVAPRTKVSPQG[Hyp]-NH2; disulfide 2-7; N-terminus assumed) | > 5 | 10.650
4 | CC[C@H](C)[C@H](NC(=O)[C@H](CCC(N)=O)NC(=O)[C@H](Cc1c[nH]cn1)NC(=O)[C@H](C)NC(=O)[C@H](CC(C)C)NC(=O)[C@H](CCCNC(=N)N)NC(=O)[C@H](CCC(N)=O)NC(=O)[C@@H](NC(=O)[C@@H](NC(=O)[C@@H]1CSSC[C@H](NC(=O)CN)C(=O)N[C@@H](CCCNC(=N)N)C(=O)N[C@@H]([C@@H](C)O)C(=O)NCC(=O)N[C@@H]([C@@H](C)O)C(=O)N1)[C@@H](C)O)C(C)C)C(=O)N[C@@H](Cc1ccc(O)cc1)C(=O)N[C@@H](CCC(N)=O)C(=O)N[C@@H](Cc1ccccc1)C(=O)N[C@H](C(=O)N[C@@H](CC(N)=O)C(=O)N[C@@H](CCCCN)C(=O)N[C@@H](CC(=O)O)C(=O)N[C@@H](CCCCN)C(=O)N[C@@H](CC(=O)O)C(=O)N[C@@H](CC(N)=O)C(=O)N[C@H](C(=O)N[C@@H](C)C(=O)N1CCC[C@H]1C(=O)N[C@@H](CCCNC(=N)N)C(=O)N[C@@H](CO)C(=O)N[C@@H](CCCCN)C(=O)N[C@H](C(=O)N[C@@H](CO)C(=O)N1CCC[C@H]1C(=O)N[C@@H](CCC(N)=O)C(=O)N[C@@H](Cc1c[nH]c2ccccc12)C(=O)N1C[C@H](O)C[C@H]1C(N)=O)[C@@H](C)CC)C(C)C)[C@@H](C)O [compound 220] (H-GCRTGTCTVQRLAHQIYQFTNKDKDNVAPRSKISPQW[Hyp]-NH2; disulfide 2-7) | > 5 | 1.100
5 | CC[C@H](C)[C@H](NC(=O)[C@H](CCC(N)=O)NC(=O)[C@H](Cc1c[nH]cn1)NC(=O)[C@H](C)NC(=O)[C@H](CC(C)C)NC(=O)[C@H](CCCNC(N)=O)NC(=O)[C@H](CCC(N)=O)NC(=O)[C@@H](NC(=O)[C@@H](NC(=O)[C@@H]1CSSC[C@H](NC(=O)CN)C(=O)N[C@@H](CCCNC(=N)N)C(=O)N[C@@H](Cc2c[nH]c3ccccc23)C(=O)NCC(=O)N[C@@H]([C@@H](C)O)C(=O)N1)[C@@H](C)O)C(C)C)C(=O)N[C@@H](Cc1ccc(O)cc1)C(=O)N[C@@H](CCC(N)=O)C(=O)N[C@@H](Cc1ccccc1)C(=O)N[C@H](C(=O)N[C@@H](CC(=O)O)C(=O)N[C@@H](CCCCN)C(=O)N[C@@H](CC(=O)O)C(=O)N[C@@H](CCCCN)C(=O)N[C@@H](CC(=O)O)C(=O)N[C@@H](CC(N)=O)C(=O)N[C@H](C(=O)N[C@@H](C)C(=O)N1CCC[C@H]1C(=O)N[C@@H](CCCNC(=N)N)C(=O)N[C@@H](CO)C(=O)N[C@@H](CCCCN)C(=O)N[C@H](C(=O)N[C@@H](CO)C(=O)N1CCC[C@H]1C(=O)N[C@@H](CCC(N)=O)C(=O)N[C@H](C(=O)N1C[C@H](O)C[C@H]1C(N)=O)[C@@H](C)O)[C@@H](C)CC)C(C)C)[C@@H](C)O [compound 296] (H-GCRWGTCTVQ[Cit]LAHQIYQFTDKDKDNVAPRSKISPQT[Hyp]-NH2; disulfide 2-7; N-terminus assumed) | > 5 | 26.050

Second part, the compound after the results:

Row | EC50 (hAM1 receptor) [µM] | Max ThT signal (%) [1] [%] | Compound
6 | > 5 | 15.250 | CC[C@H](C)[C@H](NC(=O)[C@H](CCC(N)=O)NC(=O)[C@H](Cc1c[nH]cn1)NC(=O)[C@H](C)NC(=O)[C@H](CC(C)C)NC(=O)[C@H](Cc1c[nH]c2ccccc12)NC(=O)[C@H](CCC(N)=O)NC(=O)[C@@H](NC(=O)[C@@H](NC(=O)[C@@H]1CSSC[C@H](NC(=O)CN)C(=O)N[C@@H](CCCNC(=N)N)C(=O)N[C@@H]([C@@H](C)O)C(=O)NCC(=O)N[C@@H]([C@@H](C)O)C(=O)N1)[C@@H](C)O)C(C)C)C(=O)N[C@@H](Cc1ccc(O)cc1)C(=O)N[C@@H](CCC(N)=O)C(=O)N[C@@H](Cc1ccccc1)C(=O)N[C@H](C(=O)N[C@@H](CC(=O)O)C(=O)N[C@@H](CCCCN)C(=O)N[C@@H](CC(=O)O)C(=O)N[C@@H](CCCCN)C(=O)N[C@@H](CC(=O)O)C(=O)N[C@@H](CC(N)=O)C(=O)N[C@H](C(=O)N[C@@H](C)C(=O)N1CCC[C@H]1C(=O)N[C@@H](CCCNC(=N)N)C(=O)N[C@H](C(=O)N[C@@H](CCCCN)C(=O)N[C@H](C(=O)NCC(=O)N1CCC[C@H]1C(=O)N[C@@H](CCC(N)=O)C(=O)NCC(=O)N1C[C@H](O)C[C@H]1C(N)=O)C(C)C)[C@@H](C)O)C(C)C)[C@@H](C)O [compound 349] (H-GCRTGTCTVQWLAHQIYQFTDKDKDNVAPRTKVGPQG[Hyp]-NH2; disulfide 2-7; N-terminus assumed)
7 | > 5 | 25.350 | CC[C@H](C)[C@H](NC(=O)[C@H](CCCCN)NC(=O)[C@H](CO)NC(=O)[C@H](CCCNC(=N)N)NC(=O)[C@@H]1CCCN1C(=O)[C@H](C)NC(=O)[C@@H](NC(=O)[C@H](CC(N)=O)NC(=O)[C@H](CC(=O)O)NC(=O)[C@H](CCCCN)NC(=O)[C@H](CC(=O)O)NC(=O)[C@H](CCCCN)NC(=O)[C@H](CC(=O)O)NC(=O)[C@@H](NC(=O)[C@H](Cc1ccccc1)NC(=O)[C@H](CCC(N)=O)NC(=O)[C@H](Cc1ccc(O)cc1)NC(=O)[C@@H](NC(=O)[C@H](CCC(N)=O)NC(=O)[C@H](Cc1c[nH]cn1)NC(=O)[C@H](C)NC(=O)[C@H](CC(C)C)NC(=O)[C@H](Cc1c[nH]c2ccccc12)NC(=O)[C@H](CCC(N)=O)NC(=O)[C@@H](NC(=O)[C@@H](NC(=O)[C@@H]1CSSC[C@H](NC(=O)CN)C(=O)N[C@@H](CCCNC(=N)N)C(=O)N[C@@H]([C@@H](C)O)C(=O)NCC(=O)N[C@@H]([C@@H](C)O)C(=O)N1)[C@@H](C)O)C(C)C)[C@@H](C)CC)[C@@H](C)O)C(C)C)C(=O)NCC(=O)N1CCC[C@H]1C(=O)N[C@@H](CC(N)=O)C(=O)NCC(=O)N1C[C@H](O)C[C@H]1C(N)=O [compound 355] (H-GCRTGTCTVQWLAHQIYQFTDKDKDNVAPRSKIGPNG[Hyp]-NH2; disulfide 2-7; N-terminus assumed)

— patent US12139520B2 (priority 2020, dated 2024)
